# Assay results: ChEMBL document CHEMBL1132457 (J Med Chem, 1999)
# Key:
# [1] = biological target: T1, Adenosine receptor A3 (Rattus norvegicus) (UniProt P28647); type: cell-based; conditions: CHO, 10 mM
# T1 sequence (whole entry): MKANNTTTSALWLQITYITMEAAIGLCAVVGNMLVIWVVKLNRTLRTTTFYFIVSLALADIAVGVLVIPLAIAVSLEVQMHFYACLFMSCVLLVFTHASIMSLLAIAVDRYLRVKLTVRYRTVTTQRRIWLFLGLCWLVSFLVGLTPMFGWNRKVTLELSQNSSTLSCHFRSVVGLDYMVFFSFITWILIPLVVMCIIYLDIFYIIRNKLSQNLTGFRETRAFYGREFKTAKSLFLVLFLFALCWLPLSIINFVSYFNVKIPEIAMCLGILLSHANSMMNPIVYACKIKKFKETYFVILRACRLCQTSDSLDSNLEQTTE
# [2] = biological target: T2, Adenosine receptor A3 (Homo sapiens) (UniProt P0DMS8); conditions: CHO, 1 uM
# T2 sequence (whole entry): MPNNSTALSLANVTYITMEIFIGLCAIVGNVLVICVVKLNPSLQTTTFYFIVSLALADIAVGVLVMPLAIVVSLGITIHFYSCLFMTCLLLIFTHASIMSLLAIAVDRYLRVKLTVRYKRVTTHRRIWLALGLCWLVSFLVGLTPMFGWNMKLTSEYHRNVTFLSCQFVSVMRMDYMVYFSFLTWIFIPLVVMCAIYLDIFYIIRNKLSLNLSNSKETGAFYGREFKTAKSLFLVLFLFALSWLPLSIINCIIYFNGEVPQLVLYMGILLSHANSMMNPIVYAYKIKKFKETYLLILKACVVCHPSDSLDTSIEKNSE
# Description: Perent inhibition of cAMP-accumulation in CHO cells expressing human Adenosine A3 receptor by IB-MECA at 1 uM.
# Adenosine receptor A1 [3] = biological target: T3, Adenosine receptor A1 (Rattus norvegicus, UniProt P25099); test: Displacement of [3H]DPCPX from Adenosine A1 receptor of rat brain membranes; type: cell membranes, Membrane
# T3 sequence (P25099 whole entry): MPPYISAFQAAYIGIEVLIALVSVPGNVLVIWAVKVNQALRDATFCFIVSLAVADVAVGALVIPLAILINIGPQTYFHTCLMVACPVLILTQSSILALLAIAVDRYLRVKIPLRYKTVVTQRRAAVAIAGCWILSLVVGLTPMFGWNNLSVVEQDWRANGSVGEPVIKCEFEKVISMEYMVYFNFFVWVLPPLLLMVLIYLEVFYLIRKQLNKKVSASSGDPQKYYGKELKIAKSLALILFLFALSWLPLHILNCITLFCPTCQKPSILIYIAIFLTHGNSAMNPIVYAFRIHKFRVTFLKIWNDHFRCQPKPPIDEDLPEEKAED
# Adenosine receptor A2a [4] = biological target: Adenosine receptor A2a (Rattus norvegicus, UniProt P30543)
# Description: Displacement of [3H]-SCH- 58261 from Adenosine A2A receptor in rat striatal membranes
# Adenosine receptor A3 [5] = biological target: T4, Adenosine receptor A3 (Homo sapiens, UniProt P0DMS8); test: Inhibitory concentration as antagonistic activity against cAMP generation inhibited by IB-MECA in CHO cell membranes transfected with human A3 receptor; type: functional, cell-based
# T4 sequence (P0DMS8 whole entry): T2 sequence (whole entry)
# [6] = biological target: T2, Adenosine receptor A3 (Homo sapiens); conditions: CHO, 1 uM; remark: listed apart in the source
# Description: Percent inhibition of cAMP-accumulation in CHO cells expressing hA3 adenosine receptors by IB-MECA at 1 uM.
# Adenosine receptor A3 [7] = biological target: T4, Adenosine receptor A3; test: Inhibitory concentration as antagonistic activity against cAMP generation inhibited by IB-MECA in CHO cell membranes transfected with human Adenosine A3 receptor; type: functional, cell-based
# Adenosine receptor A2a [8] = biological target: T5, Adenosine receptor A2a (Homo sapiens, UniProt P29274); test: Displacement of specific [3H]-SCH- 58261 binding at human Adenosine A2A receptor expressed in HEK293 cells; type: cell-based
# Adenosine receptor A1 [9] = biological target: T6, Adenosine receptor A1 (Homo sapiens, UniProt P30542); test: Displacement of [3H]DPCPX from human Adenosine A1 receptor expressed in CHO cells; type: cell-based
# T6 sequence (P30542 whole entry): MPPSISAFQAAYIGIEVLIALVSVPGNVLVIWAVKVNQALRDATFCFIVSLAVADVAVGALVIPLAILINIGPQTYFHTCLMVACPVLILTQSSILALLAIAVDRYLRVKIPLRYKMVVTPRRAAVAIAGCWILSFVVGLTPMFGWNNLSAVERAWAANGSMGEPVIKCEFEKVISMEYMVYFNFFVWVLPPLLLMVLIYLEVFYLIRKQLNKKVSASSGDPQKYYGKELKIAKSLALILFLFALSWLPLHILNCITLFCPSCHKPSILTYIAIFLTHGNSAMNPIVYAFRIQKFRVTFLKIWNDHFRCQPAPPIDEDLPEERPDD
# Adenosine receptor A2a [10] = biological target: T5, Adenosine receptor A2a; test: Displacement of [3H]-SCH- 58261 from human Adenosine A2A receptor expressed in HEK293 cells; type: cell-based
# HEK293 [11] = test: Ratio of binding affinity for rat adenosine A1 and human adenosine A3 receptors expressed in HEK293 cells; type: cell-based
# HEK293 [12] = test: Ratio of binding affinity for rat adenosine A2A of striatal membranes and human adenosine A3 receptors expressed in HEK293 cells; type: cell-based
# [13] = biological target: T2, Adenosine receptor A3 (Homo sapiens); test: Percent inhibition of cAMP-accumulation in CHO cells by IB-MECA at 1 uM; type: functional, cell-based
# [14] = biological target: T2, Adenosine receptor A3 (Homo sapiens); test: Percent inhibition of cAMP-accumulation in CHO cells by IB-MECA at 1 uM.; type: functional, cell-based
# [15] = biological target: Adenosine receptors; A1 & A3 (Homo sapiens) (UniProt P30542+P0DMS8); test: Ratio of binding affinity for human adenosine A1 and A3 receptors expressed in HEK293 cells; type: cell-based
# T5 sequence (P29274 whole entry): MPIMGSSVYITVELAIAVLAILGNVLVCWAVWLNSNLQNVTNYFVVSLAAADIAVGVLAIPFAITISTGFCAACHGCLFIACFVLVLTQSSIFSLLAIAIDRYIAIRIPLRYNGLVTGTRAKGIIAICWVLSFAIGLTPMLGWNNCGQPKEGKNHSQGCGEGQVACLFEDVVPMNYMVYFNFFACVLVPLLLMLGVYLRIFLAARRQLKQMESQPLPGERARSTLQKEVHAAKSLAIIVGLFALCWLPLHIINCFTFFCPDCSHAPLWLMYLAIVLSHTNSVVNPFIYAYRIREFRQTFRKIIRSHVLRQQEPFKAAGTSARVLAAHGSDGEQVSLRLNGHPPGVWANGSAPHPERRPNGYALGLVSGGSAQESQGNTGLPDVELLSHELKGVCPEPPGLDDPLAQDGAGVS
# Adenosine receptor A2a (Rattus norvegicus, UniProt P30543), sequence (P30543 whole entry): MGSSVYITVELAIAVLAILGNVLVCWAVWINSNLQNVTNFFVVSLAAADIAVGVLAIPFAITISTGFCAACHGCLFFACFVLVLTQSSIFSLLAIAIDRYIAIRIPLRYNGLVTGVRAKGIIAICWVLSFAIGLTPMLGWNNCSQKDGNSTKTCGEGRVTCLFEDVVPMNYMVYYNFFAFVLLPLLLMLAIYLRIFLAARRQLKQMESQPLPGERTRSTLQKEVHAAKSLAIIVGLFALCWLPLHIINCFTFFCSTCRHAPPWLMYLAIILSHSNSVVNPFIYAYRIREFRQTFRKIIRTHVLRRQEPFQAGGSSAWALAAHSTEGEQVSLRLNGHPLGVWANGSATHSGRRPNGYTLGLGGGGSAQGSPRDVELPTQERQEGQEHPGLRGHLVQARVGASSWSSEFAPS
inhibition [1] [%],inhibition [2] [%],Ki (Adenosine receptor A1 [3]) [nM],Ki (Adenosine receptor A2a [4]) [nM],IC50 (Adenosine receptor A3 [5]) [nM],inhibition [6] [%],IC50 (Adenosine receptor A3 [7]) [nM],Ki (Adenosine receptor A2a [8]) [nM],Ki (Adenosine receptor A1 [9]) [nM],Ki (Adenosine receptor A2a [10]) [nM],inhibition [13] [%],inhibition [14] [%],Ratio [15],SMILES,Ratio (HEK293 [11]),Ratio (HEK293 [12])
39,–,> 10000,> 10000,6.5,88,–,–,–,–,–,–,–,CCn1cc2c(nc(NC(=O)Nc3ccc(OC)cc3)n3nc(-c4ccco4)nc23)n1,–,–
20,–,–,> 10000,5.3,87,–,–,30,1220,–,–,–,CCCn1cc2c(nc(NC(=O)Nc3cccc(Cl)c3)n3nc(-c4ccco4)nc23)n1,–,–
20,–,–,–,–,–,–,202,1500,–,50,–,–,O=C(Nc1cccc(Cl)c1)Nc1nc2nn(CCCc3ccccc3)cc2c2nc(-c3ccco3)nn12,> 234,75
37,–,–,–,12.4,–,–,124,201,–,–,81,136,COc1ccc(NC(=O)Nc2nc3nn(CCc4ccccc4)cc3c3nc(-c4ccco4)nn23)cc1,872,951

# More lines, now with the values behind:
SMILES,inhibition [1] [%],inhibition [2] [%],Ki (Adenosine receptor A1 [3]) [nM],Ki (Adenosine receptor A2a [4]) [nM],IC50 (Adenosine receptor A3 [5]) [nM],inhibition [6] [%],IC50 (Adenosine receptor A3 [7]) [nM],Ki (Adenosine receptor A2a [8]) [nM],Ki (Adenosine receptor A1 [9]) [nM],Ki (Adenosine receptor A2a [10]) [nM],inhibition [13] [%],inhibition [14] [%],Ratio [15],Ratio (HEK293 [11]),Ratio (HEK293 [12])
CCCn1cc2c(nc(NC(=O)Nc3ccc(OC)cc3)n3nc(-c4ccco4)nc23)n1,37,89,–,–,–,–,–,–,–,–,–,–,–,–,–
CCn1cc2c(nc(NC(=O)Nc3cccc(Cl)c3)n3nc(-c4ccco4)nc23)n1,36,–,–,–,–,71,15.1,185,249,–,–,–,–,–,–
COc1ccc(NC(=O)Nc2nc3nn(CCCc4ccccc4)cc3c3nc(-c4ccco4)nn23)cc1,11,–,–,–,–,–,–,1020,251,–,–,56,12.6,76.4,> 504
Nc1nc2nn(CCc3ccccc3)cc2c2nc(-c3ccco3)nn12,12,–,–,–,–,–,–,0.31,1,–,–,5,–,–,–
CCn1cc2c(nc(N)n3nc(-c4ccco4)nc23)n1,1,–,–,–,–,–,–,1.9,5,–,–,3,0.0014,0.03,0.003
Nc1nc2nn(CCCc3ccccc3)cc2c2nc(-c3ccco3)nn12,32,–,–,–,–,–,–,0.18,3,–,–,6,0.001,0.004,0.0002
CCCn1cc2c(nc(N)n3nc(-c4ccco4)nc23)n1,2,–,–,–,–,–,40.2,2.55,10,–,–,–,0.016,0.22,0.03
O=C(Nc1cccc(Cl)c1)Nc1nc2nn(CCc3ccccc3)cc2c2nc(-c3ccco3)nn12,30,–,–,–,–,–,–,110,251,–,–,62,19,79,128
